This test deals with T1, Tubulin Beta 2B Class IIb (TUBB2B) (Homo sapiens, UniProt Q9BVA1).
T1 construct: human TUBB2B in pET28a, N-terminal His-tag, expressed in E. coli BL21 (DE3) RIL
The test can be described thus: ITC with purified His-tagged TUBB2B; supported by DARTS in SW620 and DLD1 lysates. Format: binding.

What is called Kd is the constant that tells how readily two partners part at equilibrium. Read a low Kd as higher affinity.

T1 sequence (Q9BVA1 whole entry): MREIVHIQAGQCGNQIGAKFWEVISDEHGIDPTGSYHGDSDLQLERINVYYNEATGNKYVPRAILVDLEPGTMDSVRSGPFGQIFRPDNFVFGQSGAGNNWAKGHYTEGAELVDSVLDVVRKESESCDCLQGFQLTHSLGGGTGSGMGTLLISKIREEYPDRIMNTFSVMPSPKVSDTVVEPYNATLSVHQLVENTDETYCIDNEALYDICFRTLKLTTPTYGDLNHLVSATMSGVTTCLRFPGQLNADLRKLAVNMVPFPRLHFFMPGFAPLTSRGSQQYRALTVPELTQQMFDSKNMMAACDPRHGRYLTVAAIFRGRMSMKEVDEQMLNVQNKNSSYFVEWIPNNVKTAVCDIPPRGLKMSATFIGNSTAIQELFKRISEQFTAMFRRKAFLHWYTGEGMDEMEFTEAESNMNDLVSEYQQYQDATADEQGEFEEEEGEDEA

`CC(C)C[C@H](c1c(O)c(C=O)c(O)c(C=O)c1O)[C@@H]1CC[C@@](C)(O)[C@@H]2C[C@H](C(C)(C)O)CC[C@]21C` [Macrocarpal I]: the affinity, expressed as Kd, was 1540 nM.

Values taken from paper PMC11846858, “Macrocarpal I induces immunogenic cell death and synergizes with immune checkpoint inhibition by targeting tubulin and PARP1 in colorectal cancer” (Cell Death Discovery, 2025).
